Experimental findings from patent publication US20250170248A1, “SMARCA DEGRADERS AND USES THEREOF” (Kymera Therapeutics, Inc., priority 2021, published 2025) are described below.

What all share (assay type): cell-based
Experiment [1] concerns the target T1, SMARCA4 (Homo sapiens, UniProt P51532).
T1 construct: SMARCA2/SMARCA4 protein degradation selectivity in MV4-11 cells; endogenous in cells; host or cells: MV4-11
Briefly: SMARCA4 Western blot degradation in MV4-11 cells. The settings on record: 24 h; for Dmax: MV4-11, MV4-11 cells, read-out: SMARCA4 MSD MV411 degradation 24 h: average Dmax %; for DC50: MV4-11 cells, read-out: SMARCA4 MSD MV411 degradation 24 h: Mean external-Abs DC50. In short, it runs like this:
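Protein levels quantified by LI-COR Western blot (beta-actin loading control) in RIPA lysates of MV4-11 cells after 24 h compound exposure. Degradation reported as DC50, Dmax % at 24 h and SMARCA2 vs SMARCA4 selectivity, each binned into letter codes.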
(In western blotting, separated proteins are transferred to a membrane and probed.)

Experiment [2] addresses T2, SMARCA2 (Homo sapiens, UniProt P51531). Briefly: MSD SMARCA2 degradation in A549 cell line. As to conditions: 24 h; for Dmax: A549, A549 cells; for DC50: A549 cells, read-out: SMARCA2 MSD A549 degradation 24 h: Average external-Abs DC50. The procedure, abridged: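 SMARCA2 protein remaining after 24 h exposure of A549 cells (top concentration 1000 nM, 3-fold dilutions) was measured by MSD electrochemiluminescence immunoassay of cell lysates. Results are given as binned DC50 and maximal degradation (Dmax) codes.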

Experiment [3] deals with T2, SMARCA2. Briefly: SMARCA2 Western blot degradation in MV4-11 cells. Also on record: SMARCA2/SMARCA4 protein degradation selectivity in MV4-11 cells; endogenous in cells; host or cells: MV4-11. The settings on record: for Dmax: MV4-11, MV4-11 cells, read-out: SMARCA2 MSD MV411 degradation 24 h: average Dmax %; for Dmax / DC50: 24 h; for DC50 / Selectivity in MV411: MV4-11 cells; for DC50: read-out: SMARCA2 MSD MV411 degradation 24 h: Mean external-Abs DC50; for Selectivity in MV411: SMARCA2/4 selectivity.

Molecules are shown by their SMILES.

T2 sequence (P51531 whole entry): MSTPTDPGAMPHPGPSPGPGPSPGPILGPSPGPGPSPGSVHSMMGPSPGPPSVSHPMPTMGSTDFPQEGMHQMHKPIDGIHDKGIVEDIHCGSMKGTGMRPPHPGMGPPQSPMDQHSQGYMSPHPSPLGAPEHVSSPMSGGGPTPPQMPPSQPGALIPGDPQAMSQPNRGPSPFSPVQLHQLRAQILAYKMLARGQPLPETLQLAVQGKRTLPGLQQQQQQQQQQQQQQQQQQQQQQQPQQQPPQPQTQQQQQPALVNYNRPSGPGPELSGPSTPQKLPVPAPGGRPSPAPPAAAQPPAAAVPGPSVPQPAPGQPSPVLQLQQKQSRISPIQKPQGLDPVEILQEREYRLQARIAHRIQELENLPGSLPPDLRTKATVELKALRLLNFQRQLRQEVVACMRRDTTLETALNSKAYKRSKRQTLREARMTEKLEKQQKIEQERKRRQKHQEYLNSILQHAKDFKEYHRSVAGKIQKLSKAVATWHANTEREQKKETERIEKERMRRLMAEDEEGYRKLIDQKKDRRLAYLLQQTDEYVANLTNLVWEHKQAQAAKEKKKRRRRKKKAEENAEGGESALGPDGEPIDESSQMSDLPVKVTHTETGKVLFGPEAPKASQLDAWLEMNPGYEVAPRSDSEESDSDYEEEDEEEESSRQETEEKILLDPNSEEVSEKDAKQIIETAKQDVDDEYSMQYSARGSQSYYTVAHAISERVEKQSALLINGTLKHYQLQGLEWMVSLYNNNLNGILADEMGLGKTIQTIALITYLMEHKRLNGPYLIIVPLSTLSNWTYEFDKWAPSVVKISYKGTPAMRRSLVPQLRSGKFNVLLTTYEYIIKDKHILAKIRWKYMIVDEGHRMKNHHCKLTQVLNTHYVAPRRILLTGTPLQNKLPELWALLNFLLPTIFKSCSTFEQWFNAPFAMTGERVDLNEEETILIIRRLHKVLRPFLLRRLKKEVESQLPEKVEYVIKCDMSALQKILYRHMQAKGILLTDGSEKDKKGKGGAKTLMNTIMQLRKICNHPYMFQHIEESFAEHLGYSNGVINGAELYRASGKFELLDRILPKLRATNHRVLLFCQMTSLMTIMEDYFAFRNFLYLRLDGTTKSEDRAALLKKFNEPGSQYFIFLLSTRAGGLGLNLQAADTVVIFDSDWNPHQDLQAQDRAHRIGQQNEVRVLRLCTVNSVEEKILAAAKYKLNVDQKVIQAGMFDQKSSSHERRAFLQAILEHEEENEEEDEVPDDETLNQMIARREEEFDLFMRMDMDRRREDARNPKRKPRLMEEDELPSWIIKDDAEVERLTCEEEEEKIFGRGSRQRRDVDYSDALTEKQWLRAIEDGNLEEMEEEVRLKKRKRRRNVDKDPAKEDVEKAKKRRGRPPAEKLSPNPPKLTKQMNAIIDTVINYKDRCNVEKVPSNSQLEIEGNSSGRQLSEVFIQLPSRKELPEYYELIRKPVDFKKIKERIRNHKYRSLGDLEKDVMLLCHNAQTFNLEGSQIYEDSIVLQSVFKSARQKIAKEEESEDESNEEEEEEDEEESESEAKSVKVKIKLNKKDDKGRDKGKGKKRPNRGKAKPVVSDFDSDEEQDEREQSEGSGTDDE
T1 sequence (P51532 whole entry): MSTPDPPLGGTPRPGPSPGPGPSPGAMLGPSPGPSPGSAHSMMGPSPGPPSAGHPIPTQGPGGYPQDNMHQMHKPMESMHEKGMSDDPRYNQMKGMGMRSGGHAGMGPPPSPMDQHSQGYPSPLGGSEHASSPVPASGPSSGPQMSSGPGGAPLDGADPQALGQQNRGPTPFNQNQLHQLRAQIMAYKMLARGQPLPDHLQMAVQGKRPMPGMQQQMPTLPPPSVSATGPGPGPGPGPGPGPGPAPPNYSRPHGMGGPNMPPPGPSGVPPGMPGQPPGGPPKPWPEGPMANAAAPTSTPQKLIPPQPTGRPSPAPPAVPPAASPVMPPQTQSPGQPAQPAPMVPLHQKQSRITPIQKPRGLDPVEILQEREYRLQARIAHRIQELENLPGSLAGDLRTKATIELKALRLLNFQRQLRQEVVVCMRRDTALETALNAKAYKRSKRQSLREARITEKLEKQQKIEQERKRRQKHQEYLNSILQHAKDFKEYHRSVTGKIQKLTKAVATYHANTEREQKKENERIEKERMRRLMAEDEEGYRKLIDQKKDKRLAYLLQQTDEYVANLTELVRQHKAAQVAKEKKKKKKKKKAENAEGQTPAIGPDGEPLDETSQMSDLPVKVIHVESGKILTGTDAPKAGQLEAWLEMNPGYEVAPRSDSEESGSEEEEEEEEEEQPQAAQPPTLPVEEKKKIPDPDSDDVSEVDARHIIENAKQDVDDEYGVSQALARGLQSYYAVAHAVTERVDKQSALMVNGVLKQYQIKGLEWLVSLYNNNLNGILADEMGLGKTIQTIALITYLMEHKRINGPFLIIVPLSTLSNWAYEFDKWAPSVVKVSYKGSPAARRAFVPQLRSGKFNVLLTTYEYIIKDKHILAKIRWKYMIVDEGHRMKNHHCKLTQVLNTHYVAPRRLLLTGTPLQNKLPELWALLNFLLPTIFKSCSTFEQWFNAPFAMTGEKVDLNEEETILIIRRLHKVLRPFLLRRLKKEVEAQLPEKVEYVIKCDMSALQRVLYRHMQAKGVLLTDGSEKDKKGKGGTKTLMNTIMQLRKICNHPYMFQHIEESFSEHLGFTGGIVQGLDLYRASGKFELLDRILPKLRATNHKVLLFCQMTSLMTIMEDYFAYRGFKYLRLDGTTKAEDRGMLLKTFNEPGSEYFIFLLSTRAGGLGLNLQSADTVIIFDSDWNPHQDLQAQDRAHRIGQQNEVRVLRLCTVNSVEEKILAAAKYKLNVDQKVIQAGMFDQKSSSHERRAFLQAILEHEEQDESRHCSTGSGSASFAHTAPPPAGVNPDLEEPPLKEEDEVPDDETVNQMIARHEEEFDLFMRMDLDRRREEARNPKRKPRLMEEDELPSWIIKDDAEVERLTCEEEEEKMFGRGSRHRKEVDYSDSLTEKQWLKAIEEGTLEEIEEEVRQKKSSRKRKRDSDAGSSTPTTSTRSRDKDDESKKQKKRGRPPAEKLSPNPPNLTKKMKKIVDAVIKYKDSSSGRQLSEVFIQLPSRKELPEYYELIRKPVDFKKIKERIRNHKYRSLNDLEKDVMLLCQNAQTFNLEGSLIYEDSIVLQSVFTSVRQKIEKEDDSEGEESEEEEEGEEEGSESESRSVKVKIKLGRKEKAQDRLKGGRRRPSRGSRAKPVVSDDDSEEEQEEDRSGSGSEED

What is called Dmax is the largest share of the target that was removed. Broadly, the DC50 is the concentration giving 50% degradation. For `C#Cc1ccc([C@H](C)NC(=O)[C@@H]2C[C@@H](O)CN2C(=O)[C@@H](NC(=O)N2CC3(C2)CN(C2CCN(c4cnc(N5CCc6[nH]c7nnc(-c8ccccc8O)cc7c6[C@H]5C)nc4)CC2)C3)C(C)(C)C)cc1` [I-249], in experiment [1], the maximal degradation (Dmax) lay within 70 to 90% and the half-maximal degradation concentration (DC50) is over 100 nM. In experiment [2], the Dmax was over 90% and the DC50 fell in the range of 10 to 50 nM. Besides, in experiment [3], the Dmax is over 90%, the DC50 lay in the range of 10 to 100 nM and the “Selectivity in MV411” value is “C (C (10-100 fold))”.

Take `C#Cc1ccc(CNC(=O)[C@@H]2C[C@@H](O)CN2C(=O)[C@@H](NC(=O)N2CC3(CC(N4CCC(N5CCc6[nH]c7nnc(-c8ccccc8O)cc7c6[C@H]5C)CC4)C3)C2)C(C)(C)C)cc1` [I-191]: in experiment [1], the Dmax is 70 to 90% and the DC50 is over 100 nM. Moreover, in experiment [2], the Dmax is over 90% and the DC50 was over 100 nM. Moreover, in experiment [3], the Dmax was 70 to 90%, the half-maximal degradation concentration (DC50) was in the range of 1 to 10 nM and the “Selectivity in MV411” value was “C (C (10-100 fold))”.

As to `C#Cc1ccc(CNC(=O)[C@@H]2C[C@@H](O)CN2C(=O)[C@@H](NC(=O)[C@H]2CC3(C2)C[C@H](N2CCN(C(=O)CCN4CCN5c6cc(-c7ccccc7O)nnc6NC[C@H]5C4)CC2)C3)C(C)(C)C)cc1` (stereo partly shown) [I-275], the DC50 is 10 to 100 nM in experiment [1], over 100 nM in experiment [2] and 1 to 10 nM in experiment [3]. Further, in experiment [3], the “Selectivity in MV411” value is listed as “C (C (10-100 fold))”.

With `C#Cc1ccc(CNC(=O)[C@@H]2C[C@@H](O)CN2C(=O)[C@@H](NC(=O)[C@H]2CCC3(CC2)C[C@H](N2CCC(N4CCC(N5CCN6c7cc(-c8ccccc8O)nnc7NC[C@H]6C5)CC4)CC2)C3)C(C)(C)C)c(F)c1` (stereo partly shown) [I-176], in experiment [1], the Dmax is under 50% and the DC50 was over 100 nM. Moreover, in experiment [2], the Dmax is over 90% and the DC50 was over 100 nM. For the same molecule, in experiment [3], the Dmax fell in the range of 50 to 70%, the DC50 is 10 to 100 nM and the “Selectivity in MV411” value is recorded as “C (C (10-100 fold))”.

For the molecule `C#Cc1ccc(CNC(=O)[C@@H]2C[C@@H](O)CN2C(=O)[C@@H](NC(=O)[C@H]2CC3(C2)C[C@H](N2CCC(N4CCC(N5CCN6c7cc(-c8ccccc8O)nnc7NC[C@H]6C5)CC4)CC2)C3)C(C)(C)C)c(O)c1` (stereo partly shown) [I-242], the DC50 in experiment [1] fell in the range of 10 to 100 nM; in experiment [2] it was 50 to 100 nM; in experiment [3], 1 to 10 nM. Also, the “Selectivity in MV411” value in experiment [3] is on record as “C (C (10-100 fold))”.

With `C#Cc1ccc(CNC(=O)[C@@H]2C[C@@H](O)CN2C(=O)[C@@H](NC(=O)N2CC3(CC(c4cnc(N5CCC(N6CCN7c8cc(-c9ccccc9O)nnc8NC[C@H]7C6)CC5)nc4)C3)C2)C(C)(C)C)cc1` [I-276], in experiment [1], the maximal degradation (Dmax) is over 90% and the DC50 fell in the range of 10 to 100 nM. Moreover, in experiment [2], the Dmax was over 90% and the DC50 is under 10 nM. In experiment [3], the Dmax is over 90%, the half-maximal degradation concentration (DC50) was 1 to 10 nM and the “Selectivity in MV411” value is given as “C (C (10-100 fold))”.

Consider `C#Cc1ccc(CNC(=O)[C@@H]2C[C@@H](O)CN2C(=O)[C@@H](NC(=O)N2CCC[C@H](CN3CCC(N4CCC(N5CCN6c7cc(-c8ccccc8O)nnc7NC[C@H]6C5)CC4)CC3)C2)C(C)(C)C)cc1` [I-256], for which the Dmax in experiment [1], in experiment [2] and in experiment [3] was under 50% each time. Further, the DC50 in experiment [1], in experiment [2] and in experiment [3] was over 100 nM in each case. Further, the “Selectivity in MV411” value in experiment [3] was “D (D (<10 fold))”.
